# Like-named read-outs stand apart in the source and are kept apart here.
# Key:
# mouse kidneys [1] = test: Kidney histopathology in RCC tumor-bearing mice (H&E, semiquantitative score); conditions: i.p. 3 times a week for 4 weeks
# Protocol: (§1) Apoptosis was assessed by caspase 3/7 luminescent assay. Cleavage of apoptosis substrates was determined by western blotting. […] Formalin-fixed tumor, liver and kidney sections were stained with H&E and kidney sections were scored semiquantitativey.
# Namalwa tumors = test: Namalwa xenograft growth in mice; assay type: in vivo, mouse; conditions: equimolar doses i.p. 3 times a week
# [2] = system: B-cell lymphoma cell lines Namalwa, Raji, CA46, Ramos, Daudi; test: Growth and viability of B-cell Burkitt's lymphoma cell lines, MTT, 72 h; assay type: cell-based, human; conditions: B-cell lymphoma cell lines, 72 h
# Protocol: 5,000 cells/well renal cancer cells and 10,000 cells/well lymphoma cells are seeded in 96 well plates in 100 microliter medium/per well for 24 h. […] Renal cancer cells are fixed with 3.7% paraformaldehyde for 15 minutes and are stained with Crystal violet solution (0.5% in 25% methanol) for 30 minutes. After rinsing with water cell layers are dried and decolorized with Sorenson citrate with shaking for 20 minutes. […] Lymphoma cell growth was evaluated using MTT and cells are incubated for 4 hours.
# (§2) Induction of apoptosis was assessed using a caspase 3/7 luminescent assay. Cleavage of apoptosis substrates and inhibition of c-myc was determined by western blotting, with images quantified by ImageJ after normalization with GAPDH. […] Formalin-fixed tumor and kidney sections were stained with hematoxylin and esosin and kidney sections scored using a semiquantitative scale designed to assess AKI-associated tubular injury (tubular epithelial cell loss, necrosis, tubular epithelial simplification, intratubular debris, and casts).
# [3] = system: ovarian tumor cells OV90 and OVCA433; conditions: in vitro
# mouse kidneys [4] = test: Kidney histopathology, AKI-associated tubular injury score, Namalwa-bearing mice; conditions: i.p. 3 times a week for 4 weeks
# Protocol: FIG. 27 depicts in accordance with various embodiments of the invention, formalin-fixed kidney sections are stained with hematoxylin and esosin and scored using a semiquantitative scale designed to assess AKI-associated tubular injury (tubular epithelial cell loss, necrosis, tubular epithelial simplification, intratubular debris, and casts).
# as §2
# [5] = system: Namalwa cell line-derived xenografts; test: NIR-dye-cisplatin uptake in Namalwa xenografts vs organs (NIRF microscopy, IVIS); conditions: in vivo
# Source text: FIG. 28 depicts in accordance with various embodiments of the invention, B-cell lymphoma cell line (Namalwa) subcutaneus tumor xenografts in NCR-NU mice were extracted after the mice were sacrificed. NIR-dye-cisplatin uptake in tumors were imaged by a near-infrared fluorescence (NIRF) microscopy and IVIS Lumina XR Imaging System.
# [6] = system: Namalwa and Raji cell lines; test: Apoptosis by caspase 3/7 luminescent assay and western blot in BL cell lines; assay type: cell-based, human; conditions: 24 hours of drug exposure; 8, 16, 32 μM
# Protocol: Namalwa cells are cultured in RPMI 1640, 10% fetal bovine serum, 1% PenStrep, and placed in a humidified atmosphere containing 5% CO2 at 37° C. 10,000-15,000 cells/well are seeded in 96 white wall well plates in 100 microliter medium/per well for 24 h. […] 100 microliters of Caspase-Glo 3/7 assay is added and luminescence is then read. Caki-1 cells are cultured in RPMI 1640, 10% fetal bovine serum, 1% PenStrep, and placed in a humidified atmosphere containing 5% CO2 at 37° C. 5,000 cells/well are seeded in 96 white wall well plates in 100 microliter medium/per well for 24 h. […] 100 microliters of Caspase-Glo 3/7 assay is added and luminescence is then read.
# [7] = system: ex vivo expanded CTCs from PC patients and LNCaP and C4-2B cells from mouse bone marrow, 3-D spheroids; test: Viability/apoptosis of PC CTCs and bone marrow-derived LNCaP and C4-2B grown as 3-D spheroids; assay type: cell-based, human
# Protocol: Immortalized PC cell lines (PC3, LNCaP, C4-2, C4-2B, 22Rv1) and 3-D spheroid growth of mouse bone marrow-derived LNCaP and C4-2B and ex vivo expanded CTCs from patients were used. […] Induction of apoptosis was assessed by caspase 3/7 luminescent assay. Growth inhibitory effects were compared between 2-D and 3-D. Senescent luciferase-tagged LNCaP and C4-2B cells from mouse bone marrow regained growth potential when propagated in vitro as 3D spheroids. RPMI medium supplemented with 10% FBS and 1% penicillin/streptomycin was used to grow CTCs in vitro.
# Renca tumors = conditions: equimolar doses i.p. 3 times a week
# Protocol: (§3) Tumor size is measured using a formula (length×width^2)/2.
# as §1
# ACHN tumors = conditions: equimolar doses i.p. 3 times a week
# Protocol: as §3, §1
# Caki-1 cells = test: Apoptosis by caspase 3/7 luminescent assay and western blot in Caki-1 cells; assay type: cell-based, human; conditions: 24 hours of drug exposure, 8, 16, and 32 μM
# Protocol: 10,000-15,000 cells/well are seeded in 96 white wall well plates in 100 microliter medium/per well for 24 h. […] 100 microliters of Caspase-Glo 3/7 assay is added and luminescence is then read. […] 5,000 cells/well are seeded in 96 white wall well plates in 100 microliter medium/per well for 24 h. […] 100 microliters of Caspase-Glo 3/7 assay is added and luminescence is then read.
# as §1
compound,measurement,setting,value
"CC1(C)C(/C=C/C2=C(Cl)C(=C/C=C3/N(CCCCCC(=O)[O][Pt]([NH2])([NH2])([OH])([Cl])[Cl])c4ccccc4C3(C)C)/CCC2)=[N+](CCCCS(=O)(=O)[O-])c2ccccc21 [NIR dye-cisplatin, DZ-1-cisplatin]",kidney toxicity (histopathology),mouse kidneys [1],preserved the integrity and normal morphology of mouse kidneys
same,tumor growth inhibition,Namalwa tumors,more effective than cisplatin
same,antitumor effect (in words),[2],even more potent antitumor effect
same,sensitivity of cell growth relative to unconjugated drug,[3],more sensitive
same,kidney toxicity (histopathology),mouse kidneys [4],preserves the integrity and normal morphology of mouse kidneys
same,accumulation in cell line-derived xenografts relative to mouse kidneys and lungs,[5],7-15 times
same,"induction of apoptosis (caspase 3/7; caspase 9, caspase 3 and PARP)",[6],induces apoptosis
same,sensitivity of cells grown as 3-D spheroids,[7],extremely sensitive
same,tumor growth inhibition,Renca tumors,tumor growth inhibition and apoptotic nuclear lobulation/fragmentation
same,tumor growth inhibition,Renca tumors; listed as dye-cisplatin,more effective than cisplatin
same,tumor growth inhibition,ACHN tumors,tumor growth inhibition and apoptotic nuclear lobulation/fragmentation
same,tumor growth inhibition,ACHN tumors; listed as dye-cisplatin,more effective than cisplatin
same,"induction of apoptosis (caspase 3/7, apoptosis related markers)",Caki-1 cells,induced apoptosis
same,"induction of apoptosis (caspase 3/7, apoptosis related markers)",Caki-1 cells; listed as dye-cisplatin,induces apoptosis

# Source: patent US20190269801A1 (CEDARS-SINAI MEDICAL CENTER, priority 2016, published 2019)
